These results are taken from PubChem BioAssay AID1996.

Molecules are shown by their SMILES. Converted amounts (≈) assume the structure as drawn.

The conditions of the data set: buffer; pH 7.4; 200.0 µM.
The compound `O=C(c1cc(F)c(F)cc1Cl)N1CCCc2ccccc21` displayed a kinetic solubility of 30.3 µg/mL (≈ 98.5 µM).

On to `COc1cccc(NC(=O)CN(C)C(=O)c2cc(C)on2)c1`, for which the solubility (kinetic) is more than 45.5 µg/mL.

Regarding `CCn1c(CNC(=O)C2CCCCC2)cc2ccccc21`, the solubility (kinetic) stood at 0.4 µg/mL (≈ 1.41 µM).

With `Cn1cnc2c(N/N=C/c3cccs3)ncnc21`, the kinetic solubility is more than 38.7 µg/mL.

`COc1ccc(C(=O)NCC(=O)N2CCc3ccccc3C2)cc1`: the kinetic solubility is more than 48.7 µg/mL.

As for `COc1ccccc1COC(=O)N/C=C/c1ccco1`, the solubility (kinetic) was determined as 18.3 µg/mL (≈ 67 µM).

In the case of `O=C(c1cnc2nc3ccccc3n2c1)c1cc(F)ccc1O`, the kinetic solubility amounted to 9.2 µg/mL (≈ 29.9 µM). This solubility kinetic is about 2-fold lower than that of the compound before.

In turn, `O=C(CCOc1ccccc1)Nc1ccccc1F` gave a solubility (kinetic) of 37.4 µg/mL (≈ 144 µM).

`CC(=O)c1ccc(NC(=S)NC2CCCC(C)C2C)cc1` (stereo unspecified) showed a kinetic solubility of 9.7 µg/mL (≈ 31.9 µM). Compared with the last compound, the solubility kinetic is about 3.9-fold lower.

Turning to `CCOC(=O)C(=O)c1c(-c2ccc(C)cc2)nc2ccccn12`, the kinetic solubility is more than 46.3 µg/mL.

`Cn1cccc1C(=O)OCC(=O)NCc1ccc2c(c1)OCO2` came in with a solubility (kinetic) of more than 47.4 µg/mL.

`Cc1ccc(Nc2nc(-c3ccncc3)nc3ccccc23)cc1` had a kinetic solubility of less than 0.2 µg/mL.

As for `c1coc(CSc2ncnc3c2oc2ccccc23)c1`, the solubility (kinetic) came out at 0.9 µg/mL (≈ 3.19 µM).

Compound `Cc1ccc(NS(=O)(=O)c2cccs2)c(C)c1` had a solubility (kinetic) of 39.1 µg/mL (≈ 146 µM).

In turn, `COc1ccc(Nc2ncnc3sc(C)cc23)cc1.Cl` registered a kinetic solubility of 14.8 µg/mL.

The compound `CC1(C)CC(NC(=O)c2ccc(Cl)c(Cl)c2)CC(C)(C)N1` gave a kinetic solubility of more than 49.4 µg/mL.

In turn, `O=C(c1cc2cc(Br)ccc2s1)N1CCOCC1` displayed a kinetic solubility of 45.8 µg/mL (≈ 140 µM).

For `CC(C)CCNC(=O)CCCCn1c(=O)[nH]c2ccsc2c1=O`, the solubility (kinetic) was 47.1 µg/mL (≈ 140 µM).

Take `Cc1ccc(-n2c(C)nnc2SC(C)C(=O)N2CCCC2)cc1` (stereo unspecified): the solubility (kinetic) was more than 49.6 µg/mL.

As to `CCC1CCCCN1C(=O)COc1ccc(F)cc1` (stereo unspecified), the solubility (kinetic) was 38.1 µg/mL (≈ 144 µM).

The compound `CC(C)[C@H](NS(=O)(=O)c1ccccc1)C(=O)Nc1nccs1` came in with a solubility (kinetic) of 7.2 µg/mL (≈ 21.2 µM). Compared with the last compound, the solubility kinetic is about 5.3-fold lower.

As for `O=C1CCCc2nc3c(cc21)C(O)Oc1ccccc1-3` (stereo unspecified), the kinetic solubility was found to be 19.4 µg/mL (≈ 72.6 µM).

Regarding `O=C(CS(=O)(=O)c1c[nH]c2ccccc12)N1CCCCCC1`, the kinetic solubility is more than 48.1 µg/mL.

On to `O=C1c2cccc([N+](=O)[O-])c2C(=O)N1C1CCCCC1`, for which the kinetic solubility worked out at 17.7 µg/mL (≈ 64.5 µM).

`COc1ccc2nc(NC(=O)c3ccccc3O)sc2c1` showed a solubility (kinetic) of 0.7 µg/mL (≈ 2.33 µM).

In turn, `O=c1c2ccccc2nc2n1C(CBr)CS2` (stereo unspecified) showed a solubility (kinetic) of more than 44.6 µg/mL.

Compound `COc1ccccc1CNC(=O)COc1ccc(C)cc1` displayed a solubility (kinetic) of 26.2 µg/mL (≈ 91.8 µM).

The compound `O=C(COc1ccccc1Cl)N1CCCCCCC1` came in with a kinetic solubility of 31.4 µg/mL (≈ 111 µM).

Turning to `COC(=O)c1ccc(NC(=O)c2cc[n+]([O-])cc2)cc1`, the kinetic solubility is more than 40.8 µg/mL.

In the case of `COc1ccc2c([N+](=O)[O-])c(N3CCCC3)[nH]c2c1`, the solubility (kinetic) was determined as 37.7 µg/mL (≈ 144 µM).

`Cc1ccc(NC(=O)CN2CCCC2c2cccn2C)cc1C` (stereo unspecified) returned a kinetic solubility of 42.9 µg/mL (≈ 138 µM).

`COc1ccc(CCNC(=O)COc2ccccc2[N+](=O)[O-])cc1OC` returned a solubility (kinetic) of more than 54.1 µg/mL.

Compound `CC(=O)Nc1ccc(-c2cn3c(n2)SCC3)cc1` gave a kinetic solubility of 34.4 µg/mL (≈ 133 µM).

Take `CC(Oc1ccc(Cl)cc1Cl)/C(N)=N/O` (stereo unspecified): the kinetic solubility was 30.2 µg/mL (≈ 121 µM).

With `COc1cc2ccccc2cc1C(=O)N1CCOCC1`, the solubility (kinetic) was more than 40.7 µg/mL.

`c1ccc(OCc2noc(CN3CC[C@@H]4CCCC[C@H]4C3)n2)cc1` showed a kinetic solubility of 6 µg/mL (≈ 18.3 µM).

As to `O=C(OCc1ccccc1)c1cccnc1Cl`, the kinetic solubility was 32.5 µg/mL (≈ 131 µM). This solubility kinetic lies about 5.4-fold higher than the previous one.

As for `O=C(c1c(F)cccc1Cl)N1CCN(c2ccccn2)CC1`, the kinetic solubility was more than 48 µg/mL.

The compound `Cc1cc(C)c(C2=CSC3=NS(=O)(=O)CCN23)c(C)c1` yielded a solubility (kinetic) of more than 46.3 µg/mL.

`CC1CCCC(NC(=O)C2CC(=O)N(Cc3ccccc3)C2)C1C` (stereo unspecified) showed a solubility (kinetic) of 37.4 µg/mL (≈ 114 µM).

In turn, `COc1ccc(NC(C)=O)cc1S(=O)(=O)Nc1ccc(S(=O)(=O)N2CCCCC2)cc1` showed a solubility (kinetic) of more than 70.1 µg/mL.

`Cn1nc(C(C)(C)C)cc1C(=O)O` had a solubility (kinetic) of more than 27.3 µg/mL.

`CSc1ccc(CN2CCN(C(=O)Cc3ccccc3)CC2)cc1` returned a solubility (kinetic) of 28.9 µg/mL (≈ 84.9 µM).

The compound `CN(CC1COc2ccccc2O1)C(=O)CSc1ncccn1` (stereo unspecified) had a kinetic solubility of more than 49.7 µg/mL.

Take `CC(=O)Nc1cccc(OCCCNC(=O)c2ccc(C(C)(C)C)cc2)c1`: the solubility (kinetic) turned out to be 23.2 µg/mL (≈ 63 µM).

On to `CCOC(=O)c1c(C)[nH]c(C(=O)COC(=O)c2ccc([N+](=O)[O-])o2)c1C`, for which the solubility (kinetic) came out at 4.4 µg/mL (≈ 12.1 µM).

In turn, `O=C(COc1cccc(F)c1)Nc1nc(-c2cccnc2)cs1` registered a kinetic solubility of 7.3 µg/mL (≈ 22.2 µM). Compared with the last compound, the solubility kinetic is about 1.7-fold higher.

The compound `CCCc1cc(=O)[nH]c(SCC(=O)Nc2c(C)n(C)n(-c3ccccc3)c2=O)n1` displayed a solubility (kinetic) of more than 62 µg/mL.

In turn, `O=C(Cc1cccc(F)c1)Nc1ccc2c(c1)CCC2` registered a solubility (kinetic) of 1.2 µg/mL (≈ 4.46 µM).

`Cc1onc(-c2ccccc2)c1NC(=O)N(CCC#N)Cc1ccccc1` gave a kinetic solubility of 45.4 µg/mL (≈ 126 µM).

The compound `O=c1c2ccccc2cnn1Cc1n[nH]c(=S)n1-c1ccccc1F` had a kinetic solubility of more than 53 µg/mL.

As usually defined, the kinetic solubility is the concentration staying in solution when a stock, usually in DMSO, is diluted into the medium.
